Assays:
Format in all cases: physicochemical
[1] = Thermal stability by TGA; conditions: for Thermal events from SSCI report: mass/weight loss: up to 250° C.
Protocol: TG analyses were performed using a TA Instruments Q5000 IR thermogravimetric analyzer. Temperature calibration was performed using nickel and Alumel™. Each sample was placed in an aluminum pan. The sample was hermetically sealed, the lid pierced, then inserted into the TG furnace. The furnace was heated under nitrogen. The method code on the thermogram is an abbreviation for the start and end temperature as well as the heating rate; e.g., […] means “from 25° C. to 350° C., at 10° C./min”.

[2] = Hygroscopicity / dynamic vapour sorption (DVS); conditions: for DVS: hygroscopicity: Table 27A
Protocol: (§1) Approximately, 10-20 mg of sample were placed into a mesh vapour sorption balance pan and loaded into a DVS Intrinsic dynamic vapour sorption balance by Surface Measurement Systems. The sample was subjected to a ramping profile from 40-90% relative humidity (RH) at 10% increments, maintaining the sample at each step until a stable weight had been achieved (dm/dt 0.004%, minimum step length 30 minutes, maximum step length 500 minutes) at 25° C. After completion of the sorption cycle, the sample was dried using the same procedure to 0% RH and then a second sorption cycle back to 40% RH. Two cycles were performed. The weight change during the sorption/desorption cycles were plotted, allowing for the hygroscopic nature of the sample to be determined. XRPD analysis was then carried out on any solid retained.
as §1, with “Approximately, 10” for “Approximately, 10-20”, “sample was” for “sample were”, “a DVS-1” for “a DVS Intrinsic”

[3] = Storage stability of Compound 3 forms (80° C., 40° C./75% RH, 25° C./60% RH, ambient); conditions: for 1 week stability: 40° C./75% RH XRPD (uncapped): WC = weakly crystalline
Protocol: No changes by XRPD or HPLC purity were observed when the material was stored at 40° C./75% RH, 80° C. or under ambient conditions.

[4] = Differential scanning calorimetry (DSC); conditions: for DSC: Melting: onset; for DSC: Melting / DSC: Melting (peak): Table 27A
Protocol: DSC was performed using a TA Instruments 2920 or Q2000 differential scanning calorimeter. Temperature calibration was performed using NIST-traceable indium metal. The sample was placed into an aluminum DSC pan, covered with a lid, and the weight was accurately recorded. A weighed aluminum pan configured as the sample pan was placed on the reference side of the cell. The method code on the thermogram is an abbreviation for the start and end temperature as well as the heating rate; e.g., -30-250-10 means “from −30° C. to 250° C., at 10° C./min”. The following table summarizes the abbreviations used in each image for pan configurations: […]

[5] = Competitive slurries (Example 11)
Protocol: About 10 mg of Form A, Form B and Form J were weighed separately and the solids were combined into one vial. An appropriate volume of selected solvent was then added to form a slurry. Slurries were then agitated under ambient or elevated temperatures for about 48 hours. Post agitation, solids were isolated using centrifuge filtration and XRPD analysis was collected. Table 23 below details selected solvent systems and volumes used.
Solvent was re-introduced (volumes as per Table 24) to the samples and the samples were agitated for a further 72 hours as no single polymorphic form was returned from the experiments after 48 hours agitation. Solids were isolated using centrifuge filtration and XRPD analysis was collected.
Samples were repeated in 2-propanol and 2-propanol/heptane (70/30% v/v) at 60° C. using the above procedure. Samples were agitated for 24 hours and solvent volumes can be found in Table 24 below. […] Isolation of single forms via competitive slurrying appeared to be solvent dependent, as Forms B and J were produced from acetone and acetonitirile, respsectively. […] Both Forms A and B could be isolated from competitive slurrying experiments from different solvent systems but neither was exclusively predominant at a specific temperature.
An additional competitive slurry experiment was conducted. Approximately 20 mg of Form A and Form B were weighed into separate vials. […]

[6] = Thermogravimetric/differential thermal analysis (TG/DTA)
Protocol: Approximately, 5 mg of material was weighed into an open aluminium pan and loaded into a simultaneous thermogravimetric/differential thermal analyzer (TG/DTA) and held at room temperature. The sample was then heated at a rate of 10° C./min from 20° C. to 400° C. during which time the change in sample weight occurred was recorded along with any differential thermal events (DTA). Nitrogen was used as the purge gas at a flow rate of 300 cm^3/min.

Structure (SMILES)	Thermal events from SSCI report: mass/weight loss [1]	DVS analysis: hygroscopic nature ([2]; 25° C.)	DVS: hygroscopicity [2]	DVS uptake as equivalents of water ([2]; at / up to 90% RH) [equiv. water]	1 week stability: 40° C./75% RH HPLC (uncapped) ([3]; 1 week)	1 week stability: 80° C. HPLC (capped) ([3]; 1 week)	1 week stability: 80° C. XRPD (capped) ([3]; 1 week)	1 week stability: 40° C./75% RH XRPD (uncapped) ([3]; 1 week)	DSC: Melting [4]	DSC: Melting (peak) [4]	Onset Temp: Melting ([6]; Table 22B)	TG/DTA: Melting ([6]; Table 27A)	also measured
CC(=O)c1nn(CC(=O)N2[C@H](C(=O)Nc3nc(Br)ccc3C)C[C@@]3(C)C[C@@H]23)c2ccc(-c3cnc(C)nc3)cc12 [Compound 3 Form A]	0.8% mass loss	hygroscopic	Hygroscopic	2.5	99.7% (by % (by relative area)	99.7% (by % (by relative area)	Form A	WC Form A	Melting 138 °C (peak	151.4° C.)	139.4, melting ° C.	Melting 139.4 °C	DVS total uptake ([2]; at 90% RH, 25° C.): 6.9%; DVS sharp uptake ([2]; between 50-60% RH): 3.0%; DVS uptake as equivalents of water ([2]; between 50-60% RH): 1.0 equiv. water; Stability: form by XRPD after storage ([3]; 25° C./60% RH, capped vial): Form A; Stability: form by XRPD after storage ([3]; 40° C./75% RH (uncapped)): predominantly Form A; Stability: purity change after storage ([3]; 40° C./75% RH (uncapped)): no purity change; Stability: form by XRPD after storage (repeat study) ([3]; 40° C./75% RH, capped and uncapped vials): weakly crystalline (WC) Form A; Stability: purity by HPLC (relative area) ([3]; 80° C.): no reduction in purity; Thermal events from SSCI report: Melt ([4]; SSCI report): Melt 133-150 °C; Relative stability in competitive slurry ([5]; Form A, Form B and Form J, conversion of Form B to Form A in acetone over 72 hours): may be the most stable form; Onset Temp: decomposition ([6]; Table 22B): 209.0 °C; Onset Temp: melting (second event) ([6]; Table 22B): 153.9, ° C.; TG/DTA: decomposition ([6]; Table 27A): decomposition 209 °C; TG/DTA: melting (second event) ([6]; Table 27A): melting 153.9° C.,; Mass loss within the TG trace ([6]; up to 250° C.): 0.8%
CC(=O)c1nn(CC(=O)N2[C@H](C(=O)Nc3nc(Br)ccc3C)C[C@@]3(C)C[C@@H]23)c2ccc(-c3cnc(C)nc3)cc12 [Compound 3, (1R,3S,5R)-2-(2-(3-acetyl-5-(2-methylpyrimidin-5-yl)-1H-indazol-1-yl)acetyl)-N-(6-bromo-3-methylpyridin-2-yl)-5-methyl-2-azabicyclo[3.1.0]hexane-3-carboxamide]													Thermal Stability by TGA ([1]; to 250° C.): ~0.8% wt loss to 250 °C; Hygroscopicity [2]: Non-hygroscopic; Hygroscopicity: moisture uptake ([2]; at 60% RH): < 5%
CC(=O)c1nn(CC(=O)N2[C@H](C(=O)Nc3nc(Br)ccc3C)C[C@@]3(C)C[C@@H]23)c2ccc(-c3cnc(C)nc3)cc12 [Form B]	1.3%	slightly hygroscopic	Slightly hygroscopic	0.1	99.8% (by % (by relative area)	99.9% (by % (by relative area)	Form B	Form B	Melting 178.4 °C	(peak 186.3° C.)	Melting 179.8 °C	Melting 178.4 °C	DVS uptake ([2]; up to 90% RH): 0.26 wt %; 1 week stability: Ambient conditions HPLC (capped) ([3]; 1 week): 99.8% (by % (by relative area); 1 week stability: Ambient conditions XRPD (capped) ([3]; 1 week): Form B; Stability: changes by XRPD or HPLC purity ([3]; stored at 40° C./75% RH, 80° C. or under ambient conditions): No changes; Thermal events from SSCI report: thermal event temperature ([4]; SSCI report, event not named): ~176 °C; Relative stability in competitive slurry ([5]; Form A and Form B in saturated Compound 3 solutions, ambient and elevated temperature, about 2 weeks): likely the most thermodynamically stable form
